According to patent US20250263370A1 (Tay Therapeutics Limited, priority 2022, published 2025):

Legend:
[1] = Plasma stability assay, rat plasma; type: in vitro ADME; settings: Method 1 (5 μM)
In short: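 Compound at 5 μM final (0.5% DMSO) in one protocol or 10 μM (2% DMSO) in the other, incubated in plasma at 37° C.; samples taken 0–120 min and quenched with cold acetonitrile plus internal standard. LC-MS/MS gives percent remaining relative to the 0-min sample.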

[2] = Intrinsic clearance in liver microsomes, mouse; type: in vitro ADME; settings: pH 7.4, Method 1, read-out: Half-Life (T1/2) (min), Mouse
In short: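 Compound at 1 μM (0.1–1% DMSO) incubated at 37 °C with mouse or rat liver microsomes (0.5 mg/mL protein) and 1 mM NADPH in PBS pH 7.4; samples taken up to 60 min and quenched in cold acetonitrile. LC-MS/MS of percent remaining gave half-life and CLint; no-NADPH controls run.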

[3] = Sprague-Dawley rat pharmacokinetics, IV and PO cassette dosing; type: in vivo
In short: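 Male Sprague-Dawley rats (2 per arm) given up to 5 compounds in cassette, 1 mg/kg IV and 5 mg/kg PO, formulated in 5% DMSO/40% PEG-400/55% water. Plasma from serial blood samples was acetonitrile-precipitated and analysed by LC/MS/MS against matrix-matched standard curves.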

## CNC(=O)c1[nH]c(C(=O)NC2CCC2)cc1O[C@@H](C)c1ccccc1 (stereo in doubt) [Example 101, N^5-cyclobutyl-N^2-methyl-3-(1-phenylethoxy)-1H-pyrrole-2,5-dicarboxamide]
[1]
  Plasma Stability (% remaining at 120 minutes), Rat: 61%
[2]
  half-life at 1 μM: 27 min
[3]; PO 5 mg/kg, Method 1
  PO F: 66%
[3]; male, Sprague-Dawley, rat, plasma, iv, 1 mg/kg, IV 1 mg/kg, Method 1, read-out: IV T1/2 (converted)
  half-life: 54 min
